In patent USRE47193E1, “Selectively substituted quinoline compounds” (EISAI R&D MANAGEMENT CO., LTD., priority 2013, dated 2019) one finds IC50 data, which are given here for one compound.

One assay deals with T1, Human TLR4 (Homo sapiens, UniProt O00206).
T1 construct: stably and individually express human TLR4, TLR7 or TLR9 full-length ORF cDNAs; expressed in transfected cells; host or cells: HEK-293 (ATCC) with ELAM-1 NF-kappaB luciferase reporter
The assay can be described thus: HEK-293 human TLR4 NF-kappaB luciferase reporter assay (LPS). Type of assay: cell-based. The following applies: ligand LPS, analyte NFkB-luciferase. On the procedure: (§1) To identify potent and selective TLR7/8 compounds, analogs were initially screened across a cell-based panel of human TLR4, TLR7, and TLR9 reporter lines (see Pharmacology Materials and Methods for more details). […] Certain compounds were advanced into the short-term in vivo (STIV) assay to determine dose-dependent activity and duration-of-action against mouse TLR7 (see Pharmacology Materials and Methods for more details). Select compounds were then evaluated for impact in one or more of the following mouse lupus disease models: BXSB-Yaa, NZBx-NZW, and Pristane DBA/1.
(§2) HEK-293 cells (ATCC) were engineered to stably express a NF-kappaB transcription factor inducible E-selectin (ELAM-1) luciferase reporter derived from the plasmid pGL3 (Promega) containing base pairs −2241 bp to −254 bp from the promoter of the human E-selectin gene (Accession No. NM_000450). These cells were then subsequently engineered to stably and individually express human TLR4, TLR7 or TLR9 full-length ORF cDNAs. Human TLR4 cDNA (Accession No. NM_138554) was cloned into pcDNA 3.0 expression vector (Invitrogen). TLR4 transfected cells were also engineered to express human MD-2 co-receptor [MD-2 cDNA (Accession No. NM_015364) was cloned into the pEF-BOS vector] and were supplemented with 10 nM soluble CD14 (R&D Systems) in the media to optimize LPS responsiveness. […]
On the technique in general: In a reporter assay the amount or activity of a reporter protein is the signal.

The next assay concerns the target T2, TLR9 (Homo sapiens, UniProt Q9NR96).
T2 sequence (Q9NR96 26-1032): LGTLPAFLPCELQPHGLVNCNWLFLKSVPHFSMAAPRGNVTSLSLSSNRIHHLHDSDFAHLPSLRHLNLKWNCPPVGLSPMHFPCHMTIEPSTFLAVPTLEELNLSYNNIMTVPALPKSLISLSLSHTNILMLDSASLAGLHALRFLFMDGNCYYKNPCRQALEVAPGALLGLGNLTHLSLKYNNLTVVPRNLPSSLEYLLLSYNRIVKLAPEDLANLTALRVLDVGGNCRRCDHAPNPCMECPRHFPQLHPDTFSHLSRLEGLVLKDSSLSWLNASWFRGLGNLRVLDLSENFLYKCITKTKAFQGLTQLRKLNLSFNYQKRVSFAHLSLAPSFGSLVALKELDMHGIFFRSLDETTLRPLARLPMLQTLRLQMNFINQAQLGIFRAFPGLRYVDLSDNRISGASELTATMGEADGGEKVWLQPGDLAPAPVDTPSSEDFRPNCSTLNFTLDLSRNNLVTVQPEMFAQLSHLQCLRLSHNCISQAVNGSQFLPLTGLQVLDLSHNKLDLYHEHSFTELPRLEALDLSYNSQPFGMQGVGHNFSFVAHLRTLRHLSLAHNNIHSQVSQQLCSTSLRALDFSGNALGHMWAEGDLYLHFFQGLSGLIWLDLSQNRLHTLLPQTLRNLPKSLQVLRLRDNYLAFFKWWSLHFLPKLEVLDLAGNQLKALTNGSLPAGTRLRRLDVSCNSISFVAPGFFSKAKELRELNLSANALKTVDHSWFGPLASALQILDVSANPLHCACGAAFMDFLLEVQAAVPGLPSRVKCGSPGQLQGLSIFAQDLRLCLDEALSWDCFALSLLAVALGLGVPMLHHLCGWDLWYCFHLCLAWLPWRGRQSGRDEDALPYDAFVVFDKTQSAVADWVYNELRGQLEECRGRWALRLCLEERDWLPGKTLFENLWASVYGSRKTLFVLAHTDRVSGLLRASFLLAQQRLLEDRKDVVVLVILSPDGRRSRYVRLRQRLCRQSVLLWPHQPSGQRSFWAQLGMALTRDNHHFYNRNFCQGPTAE
Briefly: HEK-293 human TLR9 NF-kappaB luciferase reporter assay (CpG-ODN). Type of assay: cell-based. Details: stably and individually express human TLR4, TLR7 or TLR9 full-length ORF cDNAs; expressed in transfected cells; host or cells: HEK-293 (ATCC) with ELAM-1 NF-kappaB luciferase reporter. The following applies: ligand CpG-ODN, analyte NFkB-luciferase. The protocol:
as §1, §2

Some results are limits rather than exact numbers.

T1 sequence (O00206 24-839): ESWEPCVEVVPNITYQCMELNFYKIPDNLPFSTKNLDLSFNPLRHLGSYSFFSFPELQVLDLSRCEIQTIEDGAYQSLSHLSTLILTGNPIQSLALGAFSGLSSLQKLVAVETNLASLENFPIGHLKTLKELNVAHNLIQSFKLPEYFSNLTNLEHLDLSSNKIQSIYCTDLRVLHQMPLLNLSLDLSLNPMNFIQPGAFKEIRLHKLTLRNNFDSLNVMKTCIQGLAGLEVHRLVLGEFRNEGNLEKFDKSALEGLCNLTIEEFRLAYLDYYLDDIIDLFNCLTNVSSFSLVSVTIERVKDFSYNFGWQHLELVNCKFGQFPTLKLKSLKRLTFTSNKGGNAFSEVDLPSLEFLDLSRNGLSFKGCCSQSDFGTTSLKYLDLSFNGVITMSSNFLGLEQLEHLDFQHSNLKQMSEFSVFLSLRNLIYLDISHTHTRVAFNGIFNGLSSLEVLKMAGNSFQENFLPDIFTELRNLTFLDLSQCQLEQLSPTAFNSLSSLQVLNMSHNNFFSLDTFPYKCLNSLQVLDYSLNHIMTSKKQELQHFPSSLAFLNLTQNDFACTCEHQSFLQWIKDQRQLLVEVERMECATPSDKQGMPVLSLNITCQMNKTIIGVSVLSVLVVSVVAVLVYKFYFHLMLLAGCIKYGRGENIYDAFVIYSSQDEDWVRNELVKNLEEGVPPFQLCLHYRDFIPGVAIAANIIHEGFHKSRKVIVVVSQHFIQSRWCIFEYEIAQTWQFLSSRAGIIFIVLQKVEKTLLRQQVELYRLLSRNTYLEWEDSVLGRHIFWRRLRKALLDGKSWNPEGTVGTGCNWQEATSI
T1 sequence (Q9Y6Y9 19-160 partner): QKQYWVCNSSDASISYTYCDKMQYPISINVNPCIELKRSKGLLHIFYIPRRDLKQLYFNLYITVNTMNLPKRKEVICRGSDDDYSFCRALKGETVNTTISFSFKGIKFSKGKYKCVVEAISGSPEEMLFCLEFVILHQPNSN

As to `C[C@@H]1CN(c2ccc(C#N)c3ncccc23)C[C@H](C(=O)N[C@H]2CNC[C@H]2F)O1.Cl` [ER-899742, (2R,6R)-4-(8-cyanoquinolin-5-yl)-N-[(3S,4R)-4-fluoropyrrolidin-3-yl]-6-methylmorpholine-2-carboxamide hydrochloride], the IC50 at Human TLR4 and against TLR9 was greater than 10 µM each time.

A word on the IC50: it is the midpoint of a concentration-inhibition curve. Low values mean greater potency in that assay, high ones weaker potency in that assay.
